ChEMBL document CHEMBL3817788, “Natural cholinesterase inhibitors from Myristica cinnamomea King” (Bioorg Med Chem Lett, 2016)

Assays:
[1] = Inhibition of Saccharomyces cerevisiae alpha-glucosidase using p-nitrophenyl-alpha-D-glucopyranoside as substrate preincubated for 10 mins followed by substrate addition measured after 10 mins
[2] = target: T1, Acetylcholinesterase (Homo sapiens, UniProt P22303); experiment: Inhibition of AChE (unknown origin) using acetylthiocholine iodide as substrate incubated for 30 mins by Ellman's microplate assay
T1 sequence (P22303 whole entry): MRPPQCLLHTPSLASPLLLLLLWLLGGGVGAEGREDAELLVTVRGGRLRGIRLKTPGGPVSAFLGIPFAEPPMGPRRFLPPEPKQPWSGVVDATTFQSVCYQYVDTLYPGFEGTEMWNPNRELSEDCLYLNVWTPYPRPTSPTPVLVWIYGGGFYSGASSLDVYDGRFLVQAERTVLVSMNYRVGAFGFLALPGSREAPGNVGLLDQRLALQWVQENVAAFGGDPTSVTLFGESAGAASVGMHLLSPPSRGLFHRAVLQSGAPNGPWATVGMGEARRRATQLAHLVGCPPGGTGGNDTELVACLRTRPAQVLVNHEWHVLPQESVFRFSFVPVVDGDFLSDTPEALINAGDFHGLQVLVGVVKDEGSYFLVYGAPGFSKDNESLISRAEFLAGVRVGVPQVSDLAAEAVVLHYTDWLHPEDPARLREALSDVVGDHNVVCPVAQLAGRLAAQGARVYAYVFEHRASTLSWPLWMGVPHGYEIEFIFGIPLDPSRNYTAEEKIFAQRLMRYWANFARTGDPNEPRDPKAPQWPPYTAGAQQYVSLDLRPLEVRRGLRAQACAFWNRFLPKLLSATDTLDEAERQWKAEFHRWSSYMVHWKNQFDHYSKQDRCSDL

[3] = tested on: Acetylcholinesterase; experiment: Inhibition of AChE (unknown origin) at 100 ug/ml using acetylthiocholine iodide as substrate incubated for 30 mins by Ellman's microplate assay; settings: Homo sapiens
[4] = Selectivity index, ratio of IC50 for equine serum BChE to IC50 for AChE (unknown origin)
[5] = target: Cholinesterase (Equus caballus) (UniProt P81908); experiment: Inhibition of equine serum BChE at 100 ug/ml using S-butyrylthiocholine chloride as substrate incubated for 30 mins by Ellman's microplate assay
Cholinesterase (Equus caballus), sequence (P81908 whole entry): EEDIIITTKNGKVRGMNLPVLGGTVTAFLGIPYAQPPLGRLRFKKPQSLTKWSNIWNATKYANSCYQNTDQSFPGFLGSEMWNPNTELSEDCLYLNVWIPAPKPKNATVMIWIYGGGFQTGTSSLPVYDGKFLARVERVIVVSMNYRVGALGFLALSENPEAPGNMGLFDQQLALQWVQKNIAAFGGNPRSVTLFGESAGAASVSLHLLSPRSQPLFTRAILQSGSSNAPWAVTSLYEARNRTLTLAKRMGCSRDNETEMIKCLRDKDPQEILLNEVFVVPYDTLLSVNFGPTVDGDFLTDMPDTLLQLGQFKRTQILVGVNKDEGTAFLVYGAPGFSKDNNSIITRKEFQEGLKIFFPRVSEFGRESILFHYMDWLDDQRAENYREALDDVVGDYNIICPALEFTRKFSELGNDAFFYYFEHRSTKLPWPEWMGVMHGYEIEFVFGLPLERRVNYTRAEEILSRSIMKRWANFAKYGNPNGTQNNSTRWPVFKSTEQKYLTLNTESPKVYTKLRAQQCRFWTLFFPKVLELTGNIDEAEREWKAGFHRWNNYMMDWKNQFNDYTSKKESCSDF

[6] = target: T2, Cholinesterase (Equus caballus, UniProt P81908); experiment: Inhibition of equine serum BChE using S-butyrylthiocholine chloride as substrate incubated for 30 mins by Ellman's microplate assay
T2 sequence (P81908 whole entry): as above

[7] = Selectivity index, ratio of IC50 for AChE (unknown origin) to IC50 for equine serum BChE
[8] = target: T1, Acetylcholinesterase; experiment: Mixed inhibition of AChE (unknown origin) using acetylthiocholine iodide as substrate incubated for 30 mins by Lineweaver-Burk plot analysis
[9] = target: T2, Cholinesterase; experiment: Mixed inhibition of equine serum BChE using S-butyrylthiocholine chloride as substrate incubated for 30 mins by Lineweaver-Burk plot analysis

| SMILES | IC50 [1] [µM] | IC50 [2] [µM] | inhibition [3] [%] | Ratio IC50 [4] | inhibition [5] [%] | IC50 [6] [µM] | Ratio IC50 [7] | Ki [8] [µM] | Ki [9] [µM] |
| --- | --- | --- | --- | --- | --- | --- | --- | --- | --- |
| O=C(CCCCCCCCc1cc(O)c(O)cc1-c1ccc(O)c(C(=O)CCCCCCCCc2ccccc2)c1O)c1c(O)cccc1O | 5.05 |  |  |  |  |  |  |  |  |
| O=C1CC(CCCCCCc2ccc(O)cc2)Oc2cccc(O)c21 (centres undefined) | 359 |  |  |  |  |  |  |  |  |
| O=C(CCCCCCCCc1ccc(O)c(O)c1)c1c(O)ccc(C(CCCCCCCCc2ccc(O)c(O)c2)c2c(O)cccc2O)c1O (centres undefined) |  | 12.7 | 75.4 | 0.83 | 81.1 | 10.5 | 1.2 |  |  |
| O=C(CCCCCCCCc1ccc(O)c(O)c1)c1c(O)ccc(C(CCCCCCCCc2ccc(O)cc2)c2c(O)cccc2O)c1O (centres undefined) |  | 30.7 | 91.5 | 0.41 | 86.7 | 12.5 | 2.45 |  |  |
| O=C(CCCCCCCCc1ccc(O)cc1)c1c(O)cc(O)cc1O |  | 6.44 | 99.4 | 1.03 | 86.8 | 6.65 | 0.97 |  |  |
| O=C(O)CCCCCCCCc1ccc(O)cc1 |  |  | 45.1 |  | 49 |  |  |  |  |
| O=C(CCCCCCCCc1ccccc1)c1c(O)cccc1O [MALABARICONE A] |  | 1.31 | 97.4 | 33 | 69.5 | 39.2 | 0.04 |  |  |
| O=C(CCCCCCCCc1ccc(O)cc1)c1c(O)cccc1O [MALABARICONE B] |  | 1.84 | 95.9 | 0.96 | 87.3 | 1.76 | 1.05 | 4.33 | 0.56 |
| O=C(CCCCCCCCc1ccc(O)c(O)c1)c1c(O)cccc1O [MALABARICONE C] |  | 1.94 | 97.1 | 1.44 | 94.1 | 2.8 | 0.69 | 5.86 | 11.5 |
